Data from patent US20150258197A1, “EUTECTIC ISOMETHEPTENE MUCATE” (TONIX PHARMA HOLDINGS LIMITED, priority 2014, published 2015).

Assays:
Format in all cases: physicochemical
[1] = Excipient compatibility of racemic isometheptene mucate by DSC/XRPD (1:1 mixtures); settings: 1:1 weight ratio, ground in agate mortar, DSC (XRPD for mannitol)
Procedure: (§1) Thermal analytical techniques were used to assess the compatibility of a drug product containing racemic isometheptene mucate. The compatibility assessment was carried out between the racemic isometheptene mucate and a number of possible excipients in a 1:1 weight ratio. Based on the thermal events recorded for each component and for the mixtures, the analyses were carried out by investigating the peaks recorded by differential scanning calorimetry (DSC) in mixture between racemic isometheptene mucate and the excipients. Differences in thermal profiles between the single compound and the related mixture obtained after milling the products in an agate mortar were evaluated.
Aliquots of racemic isometheptene mucate and each excipient were weighed in a ratio of 1:1 (unless specified otherwise) and ground in an agate mortar. The homogeneous mixtures then were analyzed.
(§2) The DSC heating curves were obtained with a TA 821 DSC Mettler instrument under the following conditions:
(§3) Heating rate: 10° C./min Ambient: Nitrogen 30 mL/min Sample holder: normal open aluminum pan Temperature range: from 25° C. to 250° C. Instrument calibration: Indium sample purity 99.999%
(§4) X-ray powder diffraction (XRPD) tests were performed with the ULTIMA IV instrument (Rigaku), laying the sample on a static sample holder. The X-ray focusing slit has a variable width, interlocked with the q value. The X-ray tube has a copper target, with a current intensity of 40 mA and a voltage of 40 kV. Radiation was generated by the Cockcroft-Walton method, and was constituted by K+1 (1.540562 Å) and Kα2 (1.544398 Å). The analytical conditions were:
(§5) Fixed Time; sampling width 0.02 deg, scanning rate 1.3 s/step, 2 q range 3.35 deg and sample holder; amorphous glass equiangular 9200/2G, 0.2 mm deep. The sample was pressed with a glass plate.

[2] = Excipient compatibility of (R)-isometheptene mucate by DSC/XRPD (1:1 mixtures); settings: 1:1 weight ratio, ground in agate mortar, DSC
Procedure: as §1, with “mucate (API).” for “mucate.”
Aliquots of (R)-isometheptene mucate and each excipient were weighed in a ratio of 1:1 (unless specified otherwise) and ground in an agate mortar. The homogeneous mixtures then were analyzed.
as §2, §3
as §4, with “Kα1” for “K+1”
as §5

[3] = DSC/XRPD of 75:25 mixtures of (R)-isometheptene salts and β-mannitol; settings: for Physical interaction with β-mannitol: 75:25 salt:mannitol, dry-granulated or wet-granulated, DSC confirmed by XRPD; for Eutectic formation with mannitol: (R)-isometheptene salts other than mucate, 75:25 with β-mannitol
Procedure: Thermal analytical techniques were used to analyze mixtures of several (R)-isometheptene salts and β-mannitol in a ratio of 75:25. (R)-isometheptene salts tested were as follows: (R)-isometheptene maleate, (R)-isometheptene malate, and (R)-isometheptene tartrate. Based on the thermal events recorded for each component and for the mixtures, the analyses were carried out by investigating the peaks recorded by differential scanning calorimetry (DSC) in mixture between (R)-isometheptene mucate and the excipients. Differences in thermal profiles between the single compound and the related mixture were evaluated.
Aliquots of (R)-isometheptene salts and each excipient were weighed in a ratio of 1:1 (unless specified otherwise) and ground in an agate mortar with (wet-granulation) or without (dry-granulation) a small amount of water. The homogeneous mixtures then were analyzed.
as §2, §3
as §4, with “Kα1” for “K+1”
as §5

[4] = DSC/XRPD of binary mixtures of isometheptene mucate and mannitol (eutectic formation); settings: binary mixtures at different ratios
Procedure: Because mannitol is a common excipient in solid drug formulations, it was examined for compatibility with racemic isometheptene mucate and investigated using DSC and the interactions occurring were assessed. […] To confirm the formation of a eutectic and to characterize its physical properties, several binary mixtures at different ratios of racemic isometheptene mucate and excipient were prepared and analyzed by DSC and by XRPD. The eutectic formation improved the cohesion between the racemic isometheptene mucate and excipient particles and assured better physical linking between the two.
In order to confirm the eutectic formation and to characterize its physical properties, several binary mixtures at different ratios of racemic isometheptene mucate-excipient were prepared and analyzed by DSC and by X-ray powder diffraction (XRPD). […] For each DSC heating curve, the onset temperature and the enthalpy were evaluated both for the eutectic contribute and for the excess of component. The recorded values were plotted and a phase diagram between the two components was obtained with a characteristic profile of phase diagrams of eutectic mixtures. […]
Aliquots of racemic isometheptene mucate API and mannitol were weighed in the ratios described below and ground in an agate mortar, and the homogeneous mixtures subsequently analyzed. […]

| Compound | Excipient reactions with API (racemic isometheptene mucate), Mixture 1:1 [1] | Excipient reactions with (R)-isometheptene mucate, Mixture 1:1 [2] | Physical interaction with β-mannitol [3] | Eutectic formation with mannitol [3] | further results |
| --- | --- | --- | --- | --- | --- |
| Isomalt | No interaction reported | No interaction reported | – | – | – |
| CN[C@H](C)CCC=C(C)C.O=C(O)C(O)C(O)C(=O)O [(R)-isometheptene tartrate] | – | – | No physical interaction was observed | do not form a eutectic composition | – |
| Magnesium stearate | YES | YES | – | – | Excipient reactions with API (racemic isometheptene mucate), Mixture 1:1 ([1]; listed as magnesium stearate): small physical interaction was observed; Excipient reactions with (R)-isometheptene mucate, Mixture 1:1 ([2]; listed as magnesium stearate): small physical interaction was observed |
| OC[C@@H](O)[C@@H](O)[C@H](O)[C@H](O)CO [Mannitol] | Physical interaction (complex) | – | – | – | Excipient reactions with API (racemic isometheptene mucate), Mixture 1:1 ([1]; listed as mannitol): Physical interaction was observed |
| OC[C@@H](O)[C@@H](O)[C@H](O)[C@H](O)CO [Mannitol SD200] | – | Physical interaction (complex) | – | – | Excipient reactions with API (racemic isometheptene mucate), Mixture 1:1 ([1]; listed as mannitol SD200): Physical interaction was observed; Excipient reactions with (R)-isometheptene mucate, Mixture 1:1 ([2]; listed as mannitol SD200): Physical interaction was observed |
| CN[C@H](C)CCC=C(C)C.O=C(O)/C=C\C(=O)O [(R)-isometheptene maleate] | – | – | No physical interaction was observed | do not form a eutectic composition | – |
| CNC(C)CCC=C(C)C.CNC(C)CCC=C(C)C.O=C(O)[C@@H](O)[C@H](O)[C@H](O)[C@@H](O)C(=O)O (racemic) [racemic isometheptene mucate, reference compound] | – | – | – | – | Interaction with mannitol (eutectic vs adduct) [4]: only a physical eutectic formation |
| CCCCCCCCCCCCCCCCCC(=O)O [Stearic acid] | YES | – | – | – | Excipient reactions with API (racemic isometheptene mucate), Mixture 1:1 ([1]; listed as stearic acid): physical interaction was observed |
| CN[C@H](C)CCC=C(C)C.O=C(O)CC(O)C(=O)O [(R)-isometheptene malate] | – | – | No physical interaction was observed | do not form a eutectic composition | – |
